Source: BindingDB's records for doi:10.1021/jm070014g (2007)

Target: T1, Protein Tat (Human immunodeficiency virus type 1 group M subtype B (isolate HXB2), UniProt P04608)
T1 sequence (P04608 whole entry): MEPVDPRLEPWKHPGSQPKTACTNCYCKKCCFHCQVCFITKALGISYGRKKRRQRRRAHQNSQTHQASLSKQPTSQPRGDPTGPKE
Assay: Inhibition of Tat-mediated transcription of viral promoter in 293 T cells transfected with HIV1 tat by luciferase reporter gene assay

EC50	Structure (SMILES)
10 µM	Cc1ccc(NCCCN)c([N+](=O)[O-])c1
1 µM	CC(Cl)c1ccc(NCCCN)c([N+](=O)[O-])c1 (configuration not stated)
